# Measured values published in patent US12653862B2, “Anti-senescence compounds and uses thereof” (CLEARA BIOTECH B.V., priority 2020, dated 2026).
# Entries after “also recorded” stand apart in the source; their conditions may differ. Read-outs that look alike come from different tables or passages of the source.
# What was measured:
# [1] = Peptide stability in solution; assay type: physicochemical
# Procedure: Both peptides were dissolved in H2O and kept at room temperature. The peptide concentration was determined for the indicated time points.
# IMR90 lung fibroblasts = assay: Caspase-3/7 apoptosis assay in senescent vs healthy control IMR90 cells; assay type: cell-based, Human; conditions: for apoptosis induction by Caspase-3/7 activation, senescent vs healthy control cells: IMR90, FOXO4-DRI as control
# Procedure: (§1) Human IMR90, WI38 and RPE cells were grown in Dulbecco's Modified Eagle's Medium (DMEM; Lonza) containing 10% FCS and 1% pen/strep at 37° C. with 3.0% 02 and 5.0% CO2. To induce senescence, cells were irradiated with 10Gy ionizing radiation (Gammacell 1000) and were left for a minimum of 10 days to become senescent.
# (§2) To perform viability and apoptosis assays, cells were split into 96-well plates and treated with peptides 2 days later. Non-senescent and cancer cells were plated 1500 cells/well, while senescent cells were plated at 8.000 cells/well.
# (§3) For a caspase assay, Caspase-Glo 3/7 assay reagent (Promega) was added to the medium 2 days after treatment. The plates were then incubated in aluminium foil at room temperature on a shaker for 1 hour and subsequently measured with a Luminescence Plate Reader.
# [2] = system: colon cancer 3D organoids; assay: Colon cancer 3D organoids, live/dead assay, with chemotherapy; assay type: cell-based; conditions: for cell death vs cell cycle arrest: colon cancer 3D organoids
# Procedure: (§4) Organoids were grown at 37° C. and 5% CO2 in a humidified incubator. All organoids were cultured in matrigel (Corning) droplets in advanced DMEM/F12 (Lonza) supplemented with 1% glutamax, 1% Penicillin/Streptomycin, 1% (10 mM) HEPES, 10% Noggin conditioned medium, 2% B-27 (50×; (Thermo/Life Technologies), N-acetylcysteine ((Sigma-Aldrich, 1.25 mM)), A83-01 (Tocris, 500 nM) and SB203580 (Invitrogen/Life Technologies, 3 μM). To perform viability and apoptosis assays, the organoids were passaged through resuspension in ice-cold medium, followed by centrifugation in 15 ml tubes at 4° C. The resulting pellet was trypsinized for 5 minutes at 37° C. to obtain single cells and subsequently washed twice with advanced DMEM/F12 media. These cells were then resuspended in Matrigel and plated in 96-well plates in 5 ul droplets. 100 ul fresh medium was added to the wells 15 minutes later. Peptide and chemotherapy treatment was added to the organoids 2 days after plating.
# (§5) A Live/dead assay was performed on both larger organoids 3 days after peptide and/or chemotherapy treatment, or on organoids that were treated as single cells and allowed to grow out for 2 weeks before the assay was performed. To perform the assay, Calcein-AM (1:1000) and Propidium Iodide (PI; 1:100) were added to the medium of the organoids to detect living and dead cells respectively. The organoids were then imaged on a Zeiss Cell Observer microscope and the signal was quantified using FIJI.
# [3] = system: WT colon and tumor progression (TPO) organoids; assay: Cell viability of WT colon and tumor progression (TPO) organoids; assay type: cell-based; conditions: increasing concentrations, measured 5 days later
# Procedure: as §4
# full-length TP53 = molecular target: T1, full-length TP53 (Homo sapiens, UniProt P04637); assay: Streptavidin bead pull-down of endogenous TP53 from HEK293T lysates with biotinylated peptide; assay type: binding; conditions: streptavidin beads, HEK293T cell lysates, vs FOXO4-DRI
# T1 construct: endogenous TP53 from lysates ofHEK293T cells; endogenous in cells; host or cells: HEK293T
# T1 sequence (P04637 whole entry): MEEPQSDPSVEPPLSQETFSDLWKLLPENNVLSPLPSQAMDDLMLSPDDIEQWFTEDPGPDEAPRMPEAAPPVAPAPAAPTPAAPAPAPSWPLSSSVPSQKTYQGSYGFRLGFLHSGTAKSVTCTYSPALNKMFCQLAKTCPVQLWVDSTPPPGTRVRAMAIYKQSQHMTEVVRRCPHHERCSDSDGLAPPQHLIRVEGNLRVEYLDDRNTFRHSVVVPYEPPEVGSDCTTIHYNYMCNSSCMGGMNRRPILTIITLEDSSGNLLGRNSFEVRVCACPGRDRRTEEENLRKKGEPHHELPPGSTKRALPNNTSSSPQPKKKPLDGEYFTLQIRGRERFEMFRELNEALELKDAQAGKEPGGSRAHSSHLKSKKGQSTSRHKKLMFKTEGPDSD
# MCF10 cells = assay: Caspase assay in senescent human breast epithelial MCF10 cells; assay type: cell-based; conditions: 2 days, vs FOXO4-DRI/CL03001
# Procedure: as §3
# 3D colon organoids = assay: Outgrowth of 3D colon organoids after peptide exposure; assay type: cell-based
# Procedure: as §4
# as §5, with “To perform the assay, Calcein-AM (1:1000) and Propidium Iodide (PI; 1:100) were added to the medium of the organoids to detect living and dead cells respectively.” left out
# TP53-TAD2 = molecular target: T2, TP53-TAD2 (Homo sapiens, UniProt P04637); assay: Fluorescence polarization with FITC-labeled TP53-TAD2; assay type: binding; conditions: FITC-labeled TP53-TAD2 (250 nM), increasing concentrations of peptides
# T2 construct: amino acid 37 to 57 (p53-TAD2)
# T2 sequence (P04637 37-57 limits assumed): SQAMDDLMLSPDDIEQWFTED
# Procedure: 116 μl of a solution of the specific peptides (ranging from 1 to 100 μM) were prepared. […] 35 μl were then transferred in each well of the 384-well plate. Measurements were performed in triplicates.
# Data was acquired on a ClarioStar Plus platereader. Endpoint measurement with 200 flashes per well were performed. An excitation filter with 482 nm wavelength and emission filter with 530 nm were used and gain adjustment as well as focal height adjustment were performed for each measurement. Fluorescence intensity, parallel fluorescence polarization and perpendicular fluorescence polarization were recorded.
# Data analysis was performed using MARS Version 3.4 (BMG), Microsoft Excel and GraphPad Prism Version 8.
# [4] = system: colon carcinoma 3D organoid cultures; assay: Colon carcinoma 3D organoid cultures; assay type: cell-based
# Procedure: as §4
# Caspase-3/7 activation = assay: Live imaging of Caspase-3/7 activation over time; assay type: cell-based
# Procedure: Organoids and IMR90 cells were grown in 96-well cell culture plates and either the 488 IncuCyte Caspase 3/7 Reagent For Apoptosis (Sartorius) or the IncuCyte Caspase 3/7 red apoptosis assay reagent (Essen Bioscience) was added to the wells. Peptides were added directly before the plate was transferred to a Zeiss Cell Observer microscope that contains a Heat and CO2-controlled compartment. Subsequently, live imaging was started where a picture was recorded every 2 hours for 60 hours. Images were processed using Zen imaging software (Zeiss).
# WI38 cells = assay: Apoptosis in healthy WI38 cells; assay type: cell-based, Human; conditions: FIG. 9C
# Procedure: as §1, §2, §3
# [5] = system: normal wildtype colon organoids; assay: Normal wildtype colon organoids, with or without APC depletion; assay type: cell-based
# Procedure: as §4
# GBM8 glioblastoma cells [6] = assay: Loss of LDH (cell death) in GBM8 glioblastoma cells; assay type: cell-based; conditions: GBM8, vs FOXO4-DRI
# Procedure: (§6) GBM8 cells were cultured in Dulbecco's Modified Eagle's Medium/Nutrient Mixture F-12 (DMEM F-12), containing high glucose, L-Glutamine, no phenol red, supplemented with 1% (10 mM) HEPES, 1% Penicillin/Streptomycin, 2% B-27 (50×), 5 μg/ml Heparin sodium salt from porcine intestinal mucosa Grade I-A, 20 ng/ml recombinant human Fibroblast Growth Factor (rhFGF) and 20 ng/ml recombinant human Epidermal Growth Factor (rhEGF). These cells were cultured in plastic ware coated with Matrigel Matrix (20× diluted in DMEM F-12) at 37° C., 5% CO2 and 3% O2 in a humified incubator.
# as §2
# GBM8 glioblastoma cells [7] = assay: Caspase-3/7 activation (apoptosis) in GBM8 glioblastoma cells; assay type: cell-based
# Procedure: as §6, §2, §3
molecule,measurement,setting,value
RKKASSKIAAAILDAFSQNAWANRRSSCKRPPPRRRQRRKKRA (listed as Homo sapiens) [SEQ ID NO: 23],stability in solution,[1],improved stability in solution
RKKASSKIAAAILDAFSQNWRRKR (listed as Homo sapiens) [CL04088],"apoptosis induction by Caspase-3/7 activation, senescent vs healthy control cells",IMR90 lung fibroblasts,superior to peptide CL04022
"O=c1[nH]cc(F)c(=O)[nH]1 [SFU, 5-fluorouracil, reference compound]",cell death vs cell cycle arrest,[2],merely causes a cell cycle arrest
RKKASSKIEAAILDAFSQNWRRKRPPRRRQRRKKRG (listed as Homo sapiens) [CL04124],"cell viability, sensitivity of organoids with colorectal cancer associated mutations",[3],"sensitizes to FOXO4-based peptides, dependent on p53"
RKKASSKIAAAILDAFSQNGWANRRSSCKRP (listed as Homo sapiens) [CL04009],pull-down of endogenous TP53 (binding to full-length TP53),full-length TP53,potent in binding recombinant TP53-TAD2 and full-length TP53
same,"apoptosis induction by Caspase-3/7 activation, senescent vs healthy control cells",IMR90 lung fibroblasts,"superior selectivity to induce apoptosis by Caspase-3/7 activation in senescent, but not healthy control IMR90 lung fibroblasts; also recorded: very potent and selective capacity to induce apoptosis in senescent"
same,effective concentration (potency),"IMR90 lung fibroblasts; IMR90, compared with FOXO4-DRI",effective at a lower concentration
same,"apoptosis induction (caspase assay), potency",MCF10 cells,more potent in inducing apoptosis
same,tumor outgrowth of organoids,3D colon organoids; 14 d after exposure,no more tumor outgrowth
same,cytotoxic vs cytostatic effect,3D colon organoids; colon organoids,cytotoxic on colon organoids and not just cytostatic
AKIEAAILDAFSQNBRKRRRRQRRKKRG [CL05114],stability in solution,[1],superior stability
RKKASSKIAAAILDAFSQNAWANRRSSCKRP (listed as Homo sapiens) [CL04022],binding of TP53-TAD by fluorescence polarization,TP53-TAD2,more potent in binding TP53-TAD than the reference compound
same,"apoptosis induction by Caspase-3/7 activation, senescent vs healthy control cells",IMR90 lung fibroblasts,still better than the control
same,efficacy against organoid cultures,[4]; one Microsatellite stable (MSS) line,ineffective
same,"selectivity, patient-derived colorectal cancers vs healthy control samples",[4]; patient-derived samples,selective
same,efficacy against organoid cultures,[4]; two microsatellite-unstable (MSI) lines,effective
same,full Caspase-3/7 activation complete,Caspase-3/7 activation,60 h
same,start of Caspase-3/7 activation after administration,Caspase-3/7 activation,24 h
same,efficacy in organoids that survived chemotherapy,[2]; after 5′FluoroUracil or Oxaliplatin,more effective
same,cell death vs cell cycle arrest,[2],"induces cell death, not merely causes a cell cycle arrest"
same,"stability, peptide concentration over time","[1]; dissolved in H2O, room temperature, multiple days",more stable than CL04009
same,stability in solution,[1]; in solution,improved stability in solution
same,apoptosis induction,WI38 cells,not in healthy Wi38 cells
same,potency against organoids,[5]; normal wildtype colon organoids,less potency
same,efficacy against organoids,[5]; organoids depleted for APC,effective
same,"loss of LDH (cell death), potency",GBM8 glioblastoma cells [6],more potent than FOXO4-DRI
same,"Caspase3/-7 activation (apoptosis), potency","GBM8 glioblastoma cells [7]; GBM8, vs FOXO4-DRI",more potent than FOXO4-DRI
same,apoptosis induction,"GBM8 glioblastoma cells [7]; GBM8 glioblastoma cells, FIG. 9C",induce apoptosis in GBM8 glioblastoma cells
